Assay results from patent publication US8481592B2, “Uses of sesquiterpene derivatives” (Kwang Dong Pharm Co., Ltd., priority 2008, dated 2013).
Marks after values point to notes of the source that are not given here.

How the values were obtained:
[1] = Physical characteristics of the compounds (solubility, stability); conditions: easily dissolved in organic solvent having lower polarity than ethanol, but not water
[2] = Biochemical index of blood and liver tissue in mice fed high fat diet containing sesquiterpene compound; assay type: in vivo, mouse
Experimental: The composition of diet is described in the following Table 5. […] After experimental animals were fasted for above 12 hrs, they were anesthetized with diethylether, and their blood, liver and visceral fat tissues (epididymal fat, perirenal fat, mesenteric fat and abdominal fat) were collected. And then, they were washed with 0.1 M phosphate-buffered saline (pH 7.4), and their weights were measured. […] Concentration of total Plasma cholesterol, triglyceride and glucose was measured twice according to commercially available measurement kit (Bio Clinical system), respectively. Insulin concentration was measured by ELISA using mouse insulin kit (Shibayaki, Japan). […] The homogenate was mixed with 5 ml of chloroform:methanol solution (2:1, v/v), and centrifuged at 1,000×g for 10 min to separate lower phase. […] Three ml of chloroform:methanol:0.05% CaCl2 solution (3:48:47, v/v/v) were added to the resulting lower phase, and thoroughly mixed for 1 min. The mixture was centrifuged at 1,000×g for 10 min. The final lower phase was completely dried on nitrogen gas, and the dried lipid was dissolved in 1 ml of methanol to use analysis of lipid component. Triglyceride concentration in lipid extracts from liver tissues was measured according to commercially available measurement kit (Bio Clinical system) equal to that used in analysis of plasma.

[3] = test system: C. elegans; test: Anti-obesity effect (fat content by Nile red staining) in C. elegans; assay type: in vivo, Caenorhabditis elegans; design: key to Fat content: A low fat content was indicated by +1; a high fat content was assigned with +4; conditions: for Fat content: Nile red staining
Experimental: Using a dissecting microscope (×50 magnification), C. elegans at the 4th stage (L4, the imaginal stage) was transferred to 3 ml of a cholesterol-supplemented S-medium (containing NaCl, K2HPO4, KH2PO4, cholesterol, citrate, trace metals, CaCl2 and MgSO4), and 100 μl of E. coli OP50 (OD600=0.2) liquid-cultured overnight before 1 day of experiment was added thereto. The Pterocarpus indicus fraction sample was added to the liquid media containing C. elegans, followed by rotary culture in a dark room at 16° C. and 100 rpm. The water-insoluble sample was dissolved in DMSO and added to the culture media. The final concentration of DMSO was adjusted below 1%. […] 24 hours after the sample was added to C. elegans, 30 μl of a Nile red dye at a concentration of 10 μg/ml was added (final concentration of Nile red was adjusted to 100 ng/ml) to the media, followed by continuous rotary culture for 2 days.
In order to arrest the locomotory movement of C. elegan, 20 μl of 0.3% NaN3 was dropped on a slide glass to which 100 μl of C. elegans cultured in the presence of Nile red for 2 days was added. Under a fluorescence microscope, adipocytes of C. elegans emitting red fluorescence in a dark room were micrographed and compared with the control group to thereby determine the amount of fat. A low fat content was indicated by +1, whereas a high fat content was assigned with +4. Adult (L4 stage) C. elegans immediately prior to egg-laying were used in this Example. Therefore, the eggs were hatched after sample treatment and most of adult C. elegans were killed at 3 day post-treatment. A fat content was examined in C. elegans which had newly hatched and grown.

[4] = Body weight gain and total visceral fat weight in mice fed high fat diet containing sesquiterpene compound; assay type: in vivo, mouse; conditions: HFD with 0.2% compound in diet, C57BL mice, 8 weeks
Text: Obesity-inducible diet used in the present experiment was high fat diet (HFD: 40% fat calorie, 17 g Lard+3% maize oil/100 g diet) developed by the present inventors and the composition of diet containing sesquiterpene compounds was equal to that of HFD but each 8 sesquiterpene compounds with a concentration of 0.2% was included in diet [cedryl acetate-containing diet, (−)-α-cedrene-containing diet, (+)-β-cedrene-containing diet, cedrene epoxide-containing diet, methyl cedryl ether-containing diet, methyl cedryl ketone-containing diet, cedrenol-containing diet and (+)-cedrol-containing diet]. The composition of diet is described in the following Table 5.
6-old-week C57BL/63 male mice were adapted to laboratory environment during one week and divided into HFD control and 8 test groups according to randommized block design. […] Diet was supplied with water at 10-11 o'clock every morning, and intake amount of diet and body weight was measured every day and once of three days, respectively. The body weight was measure at 2 hrs after removing feed bin to block sudden change of body weight according to feed intake, and feed efficiency was calculated by dividing body weight gain by amount of total intake amount of diet during total experimental period which is from initial day supplying experimental diet to sacrificed day. After experimental animals were fasted for above 12 hrs, they were anesthetized with diethylether, and their blood, liver and visceral fat tissues (epididymal fat, perirenal fat, mesenteric fat and abdominal fat) were collected. And then, they were washed with 0.1 M phosphate-buffered saline (pH 7.4), and their weights were measured. Blood taken from abdominal aorta was centrifuged at 1,000×g for 15 min to separate plasma.

[5] = HFD with compound in diet, 8 weeks, fasted

With `CO[C@]1(C)CC[C@@]23C[C@@H]1C(C)(C)[C@@H]2CC[C@H]3C` [methyl cedryl ether, Methyl cedryl ether] the Solubility [1] was “Fat soluble”, the “Liver Triglyceride” value ([2]; HFD with compound in diet, 8 weeks) was 24.4 ± 1.37 µmol/g and the “IRI (insulin resistance index)” value [2, 5] was 0.61 ± 0.08* 10^−3 pmol insulin × mmol glucose × L^−2. For the same compound, the “Plasma Glucose” value [2, 5] was 5.61 ± 0.53 mmol/L, the “Plasma Insulin” value [2, 5] was 0.67 ± 0.07 ng/mL and the “Plasma Total cholesterol” value [2, 5] was 2.01 ± 0.24 mmol/L. The “Plasma Triglyceride” value [2, 5] was 1.29 ± 0.13 mmol/L, the “total cholesterol concentration reduced compared to HFD” value ([2]; plasma, 8-week) was 46% and the “inhibitory effect on adipogenesis” value ([3]; low concentration of 1 μg/ml) was “notably inhibitory effect on adipogenesis”. For the same compound, the Fat content ([3]; sample concentration 1 μg/ml) was “+1”, the Fat content ([3]; sample concentration 10 μg/ml) was “+2” and the Fat content ([3]; sample concentration 100 μg/ml) was “+2”. The Body weight gain [4] was 9.31 ± 0.91 g/8 weeks and the “total visceral fat weight” value ([4]; epididymal, perirenal, mesenteric and abdominal fat) was 50.8 ± 6.12 mg/g body weight.
